Measurements as given in article PMC9783227, “New Derivatives of the Multi-Stage Active Malaria Box Compound MMV030666 and Their Antiplasmodial Potencies” (Pharmaceuticals, 2022).
Read-outs that look alike come from different tables or passages of the source.

Key:
[1] = Parallel artificial membrane permeability assay (PAMPA); settings: for Papp at 5 h, 200 µM: pH 7.4, Pe
Method: The parallel artificial membrane permeability assay (PAMPA) is a fast and easy high-throughput assay to determine passive permeability of compounds through semi-permeable membranes (for example the blood-brain-barrier) without the influence of efflux pumps or transporter molecules.
With the high-throughput PAMPA the newly synthesized compounds were tested for their passive permeability through cell membranes without the influence of efflux pumps or transporter proteins. The assay was performed using a Corning® Gentest^TM Pre-coated PAMPA Plate System with 96-well polystyrene plates. The bottom of the acceptor plate consists of a porous membrane, whereby the pores are lined with a lipid-oil-lipid triple layer. Stock solutions of each test compound at 10 mM were prepared in DMSO or methanol and diluted with phosphate-buffered saline (PBS at a pH of 7.4) to a final concentration of 200 µM. […] The donor plate (bottom plate) was filled with the compound solutions, whereby all compounds were tested in quadruplicates. Each well of the acceptor plate (top plate) was filled with PBS buffer. Donor and acceptor plates were combined and incubated at room temperature for 5 h. After that, the plates were separated and 150 µL of each well of both plates were transferred to 96-well UV plates (Greiner Bio-One). Absorption at different wavelengths covering a range from 200 to 300 nm was measured using a SpectraMax M3 UV plate reader. […] The plates were analyzed at the wavelength where the R^2 value of the calibration curve was higher than 0.99 [41]. […] (2) cequ=[cD(t)∗VD+cA(t)∗VA]/(VD+VA) where: • VD—donor well volume (0.3 mL); • VA—acceptor well volume (0.2 mL); • cA(t)—acceptor well compound concentration at time t; • cD(t)—donor well compound concentration at time t.
Recovery of compounds from donor and acceptor wells (mass retention) was calculated as shown in the equation below. Data were only accepted when recovery exceeded 70%. (3) R=1−[cD(t)∗VD+cA(t)∗VA]/(c0∗VD) where: • R—mass retention (%); • VD—donor well volume (0.3 mL); • VA—acceptor well volume (0.2 mL); • cA(t)—acceptor well compound concentration at time t; • cD(t)—donor well compound concentration at time t; • c0—initial donor well compound concentration (200 µM).

P. falciparum NF54 = assay: In vitro microplate assay against P. falciparum NF54 (3H-hypoxanthine incorporation); type: cell-based, Plasmodium falciparum; settings: for IC50: average of four determinations, read-out: PfNF54 IC50; for S.I. = IC50 (Cyt.)/IC50 (PfNF54): L-6 cells IC50 / PfNF54 IC50
Method: (§1) All newly prepared compounds were tested for their in vitro activity against the chloroquine sensitive strain NF54 of P. falciparum. Cytotoxicity was determined using L-6 cells (rat skeletal myofibroblasts). Chloroquine and podophyllotoxin were used as standards.
The in vitro activity of compounds against erythrocytic stages of the drug sensitive NF54 strain of P. falciparum […] was determined using a ^3H-hypoxanthine incorporation assay. Compounds were dissolved in DMSO at 10 mg/mL and further diluted in medium before adding to parasite cultures that were incubated in RPMI 1640 medium without hypoxanthine, supplemented with HEPES (5.94 g/L), NaHCO3 (2.1 g/L), neomycin (100 U/mL), AlbumaxR (5 g/L) and washed human red blood cells A+ at 2.5% haematocrit (0.3% parasitaemia). Serial drug dilutions of eleven 3-fold dilutions steps covering a range from 100 to 0.002 µg/mL were prepared. The 96-well plates were incubated in a humidified atmosphere at 37 °C; 4% CO2, 3% O2, 93% N2. After 48 h of incubation time, 0.05 mL of ^3H-hypoxanthine (=0.5 µCi) was added to each well of the plate. The plates were incubated for further 24 h under the same conditions. Plates were then harvested using a Betaplate^TM cell harvester (Wallac, Zurich, Switzerland). Red blood cells were transferred onto a glass fiber filter and then washed with distilled water. The dried filters were inserted into a plastic foil with 10 mL of scintillation fluid and counted in a Betaplate^TM liquid scintillation counter (Wallac, Zurich, Switzerland). IC50 values were calculated from sigmoidal inhibition curves by linear regression using Microsoft Excel. Chloroquine (Sigma C6628) was used as control.

in vitro = settings: rat
Method: as §1
The cytotoxicity assays were performed using 96-well microtiter plates, each well containing 4000 L-6 cells (a primary cell line derived from rat skeletal myofibroblasts, ATCC CRL-1458^TM) in 0.1 mL of RPMI 1640 medium supplemented with 1% glutamine (200 mM) and 10% fetal bovine serum. Serial drug dilutions of eleven 3-fold dilution steps covering a range from 100 to 0.002 µg/mL were prepared. After 70 h of incubation, the plates were inspected under an inverted microscope to assure growth of the controls and sterile conditions. Then, 0.01 mL resazurin solution (resazurin, 12.5 mg in 100 mL double-distilled water) was added to each well and the plates were incubated for another 2 h. The plates were read with a Spectramax Gemini XS microplate fluorometer (Molecular Devices Cooperation, Sunnyvale, CA, USA) using an excitation wavelength of 536 nm and an emission wavelength of 588 nm. IC50 values were calculated by linear regression from the sigmoidal dose inhibition curves using SoftmaxPro software (Molecular Devices Cooperation, Sunnyvale, CA, USA). Podophyllotoxin (Sigma P4405) was used as control.

[2] = PAMPA, PBS pH 7.4, 200 µM, 5 h, room temperature
[3] = Plasmodium falciparum, NF54, chloroquine sensitive strain NF54, erythrocytic stages
[4] = chloroquine sensitive strain NF54, erythrocytic stages

Row | SMILES | Pe [1, 2] | IC50 (P. falciparum NF54; [3]) [µM] | IC50 at 72 h (in vitro) [µM] | Papp at 5 h, 200 µM [1, 2] [×10⁻⁶ cm/s] | IC50 (P. falciparum NF54; [4]) [µM] | S.I. = IC50 (Cyt.)/IC50 (PfNF54) (P. falciparum NF54) | Pe ([1]; PAMPA standards) [nm/s]
1 | Cn1c(=O)c2c(ncn2C)n(C)c1=O [Caffeine, reference compound] | 8.00 10^−6 cm/s |  |  |  |  |  | 80
2 | CC(C)(C)OC(=O)N1CCN(c2ccccc2NC(=O)c2cccc(C(F)(F)F)c2Nc2ccccc2)CC1 [Compound 31, tert-Butyl 4-{2-[2-anilino-3-(trifluoromethyl)benzamido]phenyl}piperazin-1-carboxylate] |  | 0.614 to 0.636 | 129 | 0.65 | 0.614 |  | 
3 | CC(C)(C)OC(=O)N1CCN(c2ccccc2NC(=O)c2ccccc2Oc2ccccc2)CC1 [Compound 30, tert-Butyl 4-[2-(2-phenoxybenzamido)phenyl]piperazin-1-carboxylate] |  | 1.13 | 22.5 | 8.52 |  | 19.87 | 
4 | NS(=O)(=O)c1cc2c(cc1Cl)NCNS2(=O)=O [Hydrochlorothiazide, reference compound] |  |  |  |  |  |  | 0.9
5 | CC(C)(C)C(=O)N1CCN(c2ccccc2NC(=O)c2cccc([N+](=O)[O-])c2Oc2ccc(F)cc2)CC1 [Compound 34, N-{2-[4-(2,2-Dimethylpropanoyl)piperazin-1-yl]phenyl}-2-(4-fluorophenoxy)-3-nitrobenzamid] |  | 2.61 | 114 | 6.92 |  |  | 
6 | CCN(CC)CCCC(C)Nc1ccnc2cc(Cl)ccc12 (centres unmarked) [CQ, chloroquine, reference compound] |  |  |  |  |  | 9672 | 
7 | CC(C)(C)OC(=O)N1CCN(c2ccccc2NC(=O)c2cccc(C(F)(F)F)c2Sc2ccc(F)cc2)CC1 [Compound 29, tert-Butyl 4-(2-{2-[(4-fluorophenyl)sulfanyl]-3-(trifluoromethyl)benz-amido}phenyl) piperazine-1-carboxylate] | 3.77 10^−6 cm/s | 0.195 | 166 | 4.31 |  | 850.5 | 
8 | CC(C)(C)OC(=O)N1CCN(c2ccccc2NC(=O)c2cccc(C(F)(F)F)c2Nc2ccc(F)cc2)CC1 [Compound 32, tert-Butyl 4-{2-[2-(4-fluoroanilino)-3-(trifluoromethyl)benzamido]phenyl}piperazin-1-carboxylate] |  | 0.614 to 0.636 | 123 | 0.57 | 0.636 |  | 

The next lines start with results.

Row | Pe [1, 2] | IC50 (P. falciparum NF54; [3]) [µM] | IC50 at 72 h (in vitro) [µM] | Papp at 5 h, 200 µM [1, 2] [×10⁻⁶ cm/s] | IC50 (P. falciparum NF54; [4]) [µM] | S.I. = IC50 (Cyt.)/IC50 (PfNF54) (P. falciparum NF54) | SMILES | Pe ([1]; PAMPA standards) [nm/s]
9 |  | 1.43 | 70.8 | 1.53 |  |  | CC(C)(C)OC(=O)N1CCN(c2ccc(NC(=O)c3cccc([N+](=O)[O-])c3Oc3ccc(F)cc3)cc2)CC1 [Compound 38, tert-Butyl 4-{4-[2-(4-fluorophenoxy)-3-nitrobenzamido]phenyl}piperazine-1-carb-oxylate] | 
10 |  | 0.539 to 0.634 | 94.2 | 0.2 | 0.539 |  | CC(C)(C)OC(=O)N1CCN(c2ccc(NC(=O)c3cccc(C(F)(F)F)c3Nc3ccc(F)cc3)cc2)CC1 [Compound 42] | 
11 |  | 5.62 | 184 | 0.02 |  |  | CC(C)(C)C(=O)N1CCN(c2ccc(NC(=O)c3ccccc3Oc3ccc(F)cc3)cc2)CC1 [Compound 43, N-{4-[4-(2,2-Dimethylpropanoyl)piperazin-1-yl]phenyl}-2-(4-fluorophenoxy)benzamid] | 
12 |  | 3.08 | 158 | 0.62 |  |  | CC(C)(C)OC(=O)N1CCN(c2ccc(NC(=O)c3cccc(N)c3Oc3ccc(F)cc3)cc2)CC1 [Compound 47, tert-Butyl 4-{4-[3-amino-2-(4-fluorophenoxy)benzamido]phenyl}piperazine-1-carboxylate] | 
13 |  | 3.09 | 98.3 | 5.57 |  | 31.78 | CC(C)(C)OC(=O)N1CCN(c2ccc(NC(=O)c3ccccc3Oc3ccccc3)cc2)CC1 [Compound 40, tert-Butyl 4-[4-(2-phenoxybenzamido)phenyl]piperazin-1-carboxylate] | 
14 |  | 1.01 | 127 | 1.44 |  | 126.0 | CC(C)(C)OC(=O)N1CCN(c2ccccc2NC(=O)c2cccc(N)c2Oc2ccc(F)cc2)CC1 [Compound 46, tert-Butyl 4-{2-[3-amino-2-(4-fluorophenoxy)benzamido]phenyl}piperazine-1-carboxylate] | 
15 |  | 1.79 | 109 | 5.13 |  |  | CC(C)(C)C(=O)N1CCN(c2ccc(NC(=O)c3cccc(F)c3Oc3ccc(F)cc3)cc2)CC1 [Compound 45, N-{4-[4-(2,2-Dimethylpropanoyl)piperazin-1-yl]phenyl}-3-fluoro-2-(4-fluorophenoxy)benzamid] | 
16 |  | 0.591 | 90.4 | 1.68 |  |  | CC(C)(C)OC(=O)N1CCN(c2ccccc2NC(=O)c2cccc([N+](=O)[O-])c2Oc2ccc(F)cc2)CC1 [Compound 28, tert-Butyl 4-{2-[2-(4-fluorophenoxy)-3-nitrobenzamido]phenyl}piperazine-1-carboxylate] | 
17 |  | 4.07 | 35.3 | 0.7 |  |  | CC(C)(C)OC(=O)N1CCN(c2ccc(NC(=O)c3cccc(F)c3Oc3ccc(F)cc3)cc2)CC1 [Compound 37, tert-Butyl 4-{4-[3-fluoro-2-(4-fluorophenoxy)benzamido]phenyl}piperazine-1-carb-oxylate] | 
18 | 4.31 10^−6 cm/s | 0.149 | 31.8 | 3.77 |  | 212.8 | CC(C)(C)OC(=O)N1CCN(c2ccc(NC(=O)c3cccc(C(F)(F)F)c3Sc3ccc(F)cc3)cc2)CC1 [Compound 39, tert-Butyl 4-(4-{2-[(4-fluorophenyl)sulfanyl]-3-(trifluoromethyl)benzamido}phenyl) piperazine-1-carboxylate] | 
19 |  | 3.4 | 203 | 2.84 |  |  | CC(C)(C)OC(=O)N1CCN(c2ccc(NC(=O)c3ccccc3Oc3ccc(F)cc3)cc2)CC1 [Compound 36, tert-Butyl 4-{4-[2-(4-fluorophenoxy)benzamido]phenyl}piperazine-1-carboxylate] | 
20 | 0.00 10^−6 cm/s | 2.14 | 15.6 |  |  |  | CC(C)(C)C(=O)N1CCN(c2ccccc2NC(=O)c2cccc(F)c2Oc2ccc(F)cc2)CC1 [Compound 35, N-{2-[4-(2,2-Dimethylpropanoyl)piperazin-1-yl]phenyl}-3-fluoro-2-(4-fluorophenoxy)benzamid] | 
